By half-life is commonly meant the time needed for the level to fall by half in the phase considered.

In patent publication US12036022B2, “Transcutaneous organ function measurement” (MediBeacon Inc., priority 2008, dated 2024) one finds half-life data, which are given here for 1 substance.

A short description of the data set: Half-life (renal excretion) after intravenous administration to rats. As to conditions: rat, in vivo. On the procedure:
The chromatographically separated fractions F5 and F10 were derivatized with fluorescein isothiocyanate (FITC) to form FITC-F5 and FITC-F10. FITC-F10 was administered to rats intravenously. The interstitial fluorescence of the FITC measured at an excitation wavelength of 485-520 nm was determined. The fluorescence in the serum was measured as a control.

sinistrin returned a half-life of 25.02 ± 1.67 min.
